The values below come from patent US20250034138A1, “Compounds and Compositions as C-Kit Kinase Inhibitors” (Enanta Pharmaceuticals, Inc., priority 2023, published 2025).

SMILES strings stand for the structures. Like-named read-outs stand apart in the source and are kept apart here. Bounds are passed on as bounds.

The test system of assay [1] is M-07e cells which endogenously express human c-KIT. Briefly: M-07e Cellular Assay (SCF-mediated cell proliferation, CellTiter Glo). The format is cell-based. Particulars: read-out: M-07e EC50. On the procedure:
2. M-07e Cellular Assay M-07e cells (Creative Bioarray, CSC-CO249) which endogenously express human c-KIT were used to evaluate the effect of compounds on stem cell factor (SCF)-mediated cell proliferation. M-07e cells were cultured in growth media (RPMI+10% FBS+1% penicillin/streptomycin+10 ng/mL GM-CSF) at 5E5-1.5E6 cells/mL, replenishing media every 3-4 days. 1.5E4 cells were seeded per well in 384 well tissue culture treated plates in 20 μL assay media (RPMI+10% FBS+1% penicillin/streptomycin) without growth factor stimulation and incubated at 37° C. in a CO2 humidity-controlled incubator. Twenty-four hours later, three-fold serially diluted test compounds in media containing SCF (at the previously determined EC90) were added to the plated M-07e cells and incubated for an additional 72 hours. Cell viability was determined by adding 25 μL CellTiter Glo (Promega) to the cells and the luminescence was measured using a Perkin Elmer Envision plate reader. The EC50 was determined using GraphPad Prism. […] EC50 ranges are reported as follows: […]

The target in assay [2] is T1, Recombinant human c-KIT kinase (Homo sapiens, UniProt P10721).
T1 construct: purchased Promega V4498
Briefly: c-KIT Kinase Chemiluminescence Assay (ADP-Glo). The following applies: recombinant human c-KIT 30-40 nM, ATP 50 μM, polyEY substrate, ADP-Glo luminescence. The format is biochemical. The source says: Staurosporine (AM-2282) and Imatinib (STI571) were purchased from Selleck Chemicals LLC (Houston, TX). The c-KIT reference compound THB001 (EP-053504) was synthesized by Enanta Pharmaceuticals, Inc. (Watertown, MA). The c-KIT Kinase Enzyme System (V4498) and ADP-Glo™ Kinase Assay kit (V6930) were purchased from Promega (Madison, WI). DMSO (D2650) was purchased from Sigma-Aldrich (Burlington, MA). ECHO-650 acoustic liquid handling system (67492212) and 384-well LDV ECHO source plates (LP-0200) were purchased from Labcyte, Inc (San Jose, CA). Envision Multimode Plate Reader (2104/464466) and ProxiPlate-384 Plus White 384-shallow well microplates (6008280) were purchased from PerkinElmer (Waltham, MA).
1. c-KIT Kinase Chemiluminescence Assay:
IC50 determination. Test compounds were dispersed into a 384-well low volume while ProxiPlate microplate from a DMSO solution using an ECHO 650 acoustic dispenser to generate a 11-point, 3.162-fold dilution, concentration curve starting at 10 μM in duplicate. Kinase Reaction: The kinase assay was based on the recommended protocol by c-KIT Kinase Enzyme System from Promega. Recombinant human c-KIT kinase in 3 μL of assay buffer (40 mM Tris pH 7.5, 20 mM MgCl2, 0.1 mg/mL BSA and 50 μM DTT) was added to the test or high control wells and 3 μL of assay buffer was added to the low control wells. The microplate was centrifuged at 800 rotations per minute (rpm) for 60 s and incubated at room temperature (RT) for 30 min. Next, 2 μL of buffered ATP and polyEY substrate solution was added to all wells. The microplate was centrifuged at 800 rpm for 60 s and incubated at RT for 2 h. The final assay contained c-KIT (30-40 nM), ATP (50 μM), polyEY substrate (0.2 μg/μL), test compounds (0-10 μM) and DMSO (1.7%) in 5 μL assay buffer. ADP detection with ADP-Glo™ Kinase Assay: After the kinase reaction incubation, 5 μL of ADP-Glo™ reagent was added to all wells. The microplate was centrifuged at 800 rpm for 60 s and incubated at RT for 40 min. Ten microliter (10 μL) of Kinase Detection Reagent (Luciferin-Luciferase system) was then added to all wells. The microplate was centrifuged at 800 rpm for 60 s and incubated at RT for 60 min. Kinase activity was measured as increase in luminescence at RT in an Envision plate reader equipped with 560 nm filters and operating in endpoint mode.
Data Analysis: Endpoint chemiluminescence from high and low control wells were used to calculate normalized c-KIT activity at various concentrations of test compounds. The normalized activities were fitted to inhibitor-versus-normalized response fit in GraphPad Prism 7 to determine half-maximal inhibitory concentration (IC50) and hill coefficient values (H).
c-KIT activity (%)=100/(1+I^H/IC50^H). Where I is the inhibitor concentration and H is the Hill coefficient. IC50 ranges are reported as follows: A<100 nM; B 0.1-1 μM; C>1 μM.
A general note: ADP-Glo turns the ADP formed in a reaction into a luminescent signal.

Setting [3] is: SCF (EC90)-stimulated M-07e cell proliferation, 72 hours, CellTiter Glo.

T1 sequence (P10721 26-976): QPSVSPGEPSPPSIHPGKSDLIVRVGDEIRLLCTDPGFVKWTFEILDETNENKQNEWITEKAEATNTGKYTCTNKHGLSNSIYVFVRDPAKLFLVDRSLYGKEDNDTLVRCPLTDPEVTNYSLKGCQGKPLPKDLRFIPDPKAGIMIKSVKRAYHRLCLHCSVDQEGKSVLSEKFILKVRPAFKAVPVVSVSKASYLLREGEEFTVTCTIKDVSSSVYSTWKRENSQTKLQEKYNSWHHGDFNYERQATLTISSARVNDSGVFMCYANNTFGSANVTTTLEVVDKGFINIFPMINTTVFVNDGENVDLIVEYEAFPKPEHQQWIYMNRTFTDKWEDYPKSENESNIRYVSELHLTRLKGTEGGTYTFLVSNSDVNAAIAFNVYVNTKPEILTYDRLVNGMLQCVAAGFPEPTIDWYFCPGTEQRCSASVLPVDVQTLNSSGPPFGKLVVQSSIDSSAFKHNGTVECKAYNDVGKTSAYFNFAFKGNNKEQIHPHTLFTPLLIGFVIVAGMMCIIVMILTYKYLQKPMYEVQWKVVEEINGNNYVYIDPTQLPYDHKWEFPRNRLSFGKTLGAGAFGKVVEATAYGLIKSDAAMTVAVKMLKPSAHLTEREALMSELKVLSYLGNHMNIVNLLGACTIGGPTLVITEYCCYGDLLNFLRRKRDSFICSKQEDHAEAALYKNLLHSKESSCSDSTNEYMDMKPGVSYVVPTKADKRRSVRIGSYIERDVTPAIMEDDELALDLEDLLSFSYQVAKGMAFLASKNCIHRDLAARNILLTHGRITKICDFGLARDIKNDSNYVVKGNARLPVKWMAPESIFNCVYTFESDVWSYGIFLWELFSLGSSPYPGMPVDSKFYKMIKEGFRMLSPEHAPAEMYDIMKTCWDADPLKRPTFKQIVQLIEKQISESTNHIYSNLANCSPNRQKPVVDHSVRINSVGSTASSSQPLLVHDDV

The term EC50 denotes the midpoint of the concentration-response curve. The IC50 is the concentration that inhibits the measured activity by half. Take `Cc1ccc(-c2nc3ccc(F)cc3[nH]2)cc1NC(=O)c1cnc2ccccn12` [Example 11-8]: the EC50 in assay [1] (setting [3]) is < 100 nM. Moreover, the IC50 in assay [2] was < 100 nM.
Regarding `Cc1ccc(-c2nc3ccc(C(F)(F)F)cc3[nH]2)cc1NC(=O)c1cnc2ccccn12` [Example 11-9], the 50% effective concentration (EC50) in assay [1] (setting [3]) was < 100 nM. Also, in assay [2], the IC50 was < 100 nM.
As for `Cc1ccc(-c2cnn(C3CC(F)(F)C3)n2)cc1NC(=O)c1cnc2ccccn12` [Example 11-10], the EC50 in assay [1] (setting [3]) is < 100 nM. In addition, in assay [2], the IC50 is < 100 nM.
Consider `Cc1ccc(-n2cc(C3CC(F)(F)C3)nn2)cc1NC(=O)c1cnc2ccccn12` [Example 11-12], for which the EC50 in assay [1] (setting [3]) was < 100 nM. Further, the IC50 in assay [2] was < 100 nM.
For the compound `Cc1ccc(-n2ncc3ccccc32)cc1NC(=O)c1cnc2ccccn12` [Example 11-13], the EC50 in assay [1] (M-07e, 72 h) was in the range of 100 to 1000 nM. Also, the IC50 in assay [2] is > 1000 nM.
As to `Cc1ccc(-c2c[nH]c(C3CC(F)(F)C3)n2)cc1NC(=O)c1cnc2ccccn12` [Example 11], the 50% effective concentration (EC50) in assay [1] (setting [3]) lay within 100 to 1000 nM. The IC50 in assay [2] is 100 to 1000 nM.
